Laboratory results from publication PMC6268972, “Antiproliferative, Antimicrobial and Apoptosis Inducing Effects of Compounds Isolated from Inula viscosa” (Molecules, 2012).
Converted amounts (≈) assume the structure as drawn.

Columns and labels:
Salmonella typhimurium = assay: Microtiter plate dilution MIC, S. typhimurium; type: cell-based; conditions: Salmonella enterica, ATCC 14028 / TYPHIMURIUM; ATCC14028, 24 h, 100% inhibition; read-out: Minimum inhibitory concentration (MIC) S.t
Protocol: (§1) The microbial strains used in this study were Escherichia coli (ATCC 10798), Salmonella typhimurium (ATCC14028), Methicillin resistant Staphylococcus aureus (MRSA, Clinical isolate), Bacillus cereus (Toxigenic strain TS), and Candida albicans (ATCC 90028). Bacterial strains were stocked onto nutrient agar slant at 4 °C, and Candida albicans was stocked onto malt agar slant at 4 °C.
(§2) The microtiter plate dilution method was used to determine the MIC (minimum inhibitory concentration) of compounds under study. Sterile 96-well microplates (Nunc) were used for the assay. Stock compounds were dissolved in DMSO so that the final concentrations in micro wells were less than 1% DMSO and solvent controls were run at these concentrations. Positive controls of penicillin G and tetracycline (Oxoid, Hampshire, UK) were prepared at the following concentrations 2, 4, 8, 16, 31, 62.5, 125, and 250 μg/mL. 1% DMSO was used as a solvent control. Compounds were diluted to twice the desired initial test concentration (250 µg/mL) with Muller Hinton broth (MHB) (Oxoid). All wells, except the first were filled with MHB (50 μL). Compounds (100 μL) were added to the first well and serial two-fold dilutions were made down to the desired minimum concentration (2 μg/mL). An over-night culture of bacteria suspended in MHB was adjusted to turbidity equal to 0.5 McFarland standard. The plates were inoculated with bacterial suspension (50 μL/well) and incubated at 37 °C for 24 h. Then the turbidity was measured using micro-plate reader (Biotek) at 620 nm wavelength. The same procedure was used to determine the antifungal activity of compounds against Candida albicans. The medium used was malt extract broth. The yeast cells were suspended in 0.85% saline, with an optical density equivalent to 0.5 McFarland standard, and diluted 1:100 in malt extract broth to obtain the working concentration. After 24 h incubation with each compound, the turbidity was measured at 530 nm wavelength using a spectrophotometer (Biotek). Percentage inhibition for tested microorganisms was calculated using the following formula:
(§3) MIC was determined as the lowest concentration of the compound that causes complete inhibition (100%) of each microorganism.

Escherichia coli = assay: Microtiter plate dilution MIC, E. coli; type: cell-based; conditions: Escherichia coli, ATCC10798; ATCC 10798, 24 h, 100% inhibition; read-out: Minimum inhibitory concentration (MIC) E.c
Protocol: as §1, §2, §3

Bacillus cereus = assay: Microtiter plate dilution MIC, B. cereus; type: cell-based; conditions: Bacillus cereus; Toxigenic strain TS, 24 h, 100% inhibition; read-out: Minimum inhibitory concentration (MIC) B.c
Protocol: as §1, §2, §3

MCF-7 cells [1] = assay: Scanning electron microscopy of MCF-7 cells; type: cell-based, human; conditions: 15 µg/mL compound (vincristin sulfate 40 nM), 48 h
Protocol: MCF-7 cells were cultured in complete DMEM containing either 15 µg/mL of 3-O-methylquercetin or 3,3′-di-O-methylquercetin and incubated for 48 h in humidified CO2 incubator. Negative control cells were incubated with complete DMEM and positive control cells received complete DMEM containing 40 nM vincristin sulfate. Treated cells were fixed with 3% glutaraldehyde for 1.5 h followed by osmium tetroxide (2% in PBS) for 1 h. After fixation, cells were washed in PBS and sequentially dehydrated using 30%, 70%, and 100% ethanol. Fixed cells were attached to a metal stubs and sputter coated with platinum by using Emitech K550X coating unit (Qourum Technology, West Sussex, UK). The coated specimens were viewed using Inspect F50/FEG scanning electron microscope (FEI, Eindhoven, The Netherlands) at accelerating voltage of 2–5 kV. Bacillus cereus cells treated with 3,3′-di-O-methylquercetin for 24 h were collected by centrifugation and washed with sodium phosphate buffer. Following that, the samples were fixed in 2.5% glutaraldehyde in 0.1 M phosphate buffer, pH 7.3, at 4 °C overnight, and postfixed in 1% osmium tetroxide in the phosphate buffer for 1 h at room temperature. Bacterial cells were dehydrated with sequential ethanol concentrations (30–100%) and coated for the observations under scanning electron microscope.

Vero cells = assay: MTT antiproliferative activity assay, Vero; type: cell-based, African green monkey; conditions: Chlorocebus sabaeus, Vero; MTT, 48 h treatment, average of three replicates; read-out: IC50 Vero
Protocol: (§4) Hep-2 (larynx carcinoma, ATCC: CCL-23), MCF-7 (breast epithelial adenocarcinoma, ATCC: HTB-22), and Vero (African green monkey kidney, ATCC: CCL-81) cell lines were kindly provided by Dr. Mona Hassuneh (Department of Biological Sciences, University of Jordan). Cells were grown in Minimum Essential Medium Eagle (Gibco, Paisley UK) supplemented with 10% heat inactivated fetal bovine serum (Gibco, Paisley UK), 29 μg/mL L-glutamine, and 40 μg/mL gentamicin. Cells were incubated in a humidified atmosphere of 5% CO2 at 37 °C.
(§5) The antiproliferative activity of Inula viscosa compounds was measured using the MTT (3-(4,5-dimethylthiazol-2-yl)-2,5-diphenyltetrazolium bromide) assay (Promega, Madison, WI, USA). The assay detects the reduction of MTT by mitochondrial dehydrogenase to blue formazan product, which reflects the normal function of mitochondria and cell viability. Exponentially growing cells were washed and seeded at 17,000 cells/well for Hep-2 cell line and 11,000 cells/ well for MCF-7 cell line (in 200 μL of growth medium) in 96 well microplates (Nunc, Roskilde, Denmark). After 24 h incubation, a partial monolayer was formed then the media was removed and 200 μL of the medium containing the compound (initially dissolved in DMSO) were added and re-incubated for 48 h. Then 100 μL of the medium were aspirated and 15 μL of the MTT solution were added to the remaining medium (100 μL) in each well. After 4 h contact with the MTT solution, blue crystals were formed. One hundred μL of the stop solution were added and incubated further for 1 h.
(§6) Reduced MTT was assayed at 550 nm using a microplate reader (Biotek, Winooski, VT, USA). Control groups received the same amount of DMSO (0.1%).Untreated cells were used as a negative control while, cells treated with vincristine sulfate were used as a positive control. Eight concentrations (150, 100, 50, 20, 10, 5, 2, and 1 μg/mL) were prepared from each compound and tested against the three cell lines. IC50 values were calculated as the concentrations that show 50% inhibition of proliferation on any tested cell line. Stock solutions of the compounds were dissolved in (DMSO) then diluted with the medium and sterilized using 0.2 μm membrane filters. The toxicity of DMSO was determined and the final dilution of compounds used for treating the cells contained not more than 0.1% (non toxic concentration) DMSO. IC50 values were reported as the average of three replicates. The antiproliferative effect of the tested compounds was determined by comparing the optical density of the treated cells against the optical density of the control (cells treated with media containing 0.1% DMSO).

Candida albicans = assay: Microtiter plate dilution MIC, C. albicans; type: cell-based; conditions: Candida albicans, ATCC90028; ATCC 90028, malt extract broth, 24 h, 100% inhibition; read-out: Minimum inhibitory concentration (MIC) C.a
Protocol: as §1, §2, §3

MCF-7 cells [2] = assay: MTT antiproliferative activity assay, MCF-7; type: cell-based, human; conditions: Homo sapiens, MCF7; MTT, 48 h treatment, average of three replicates; read-out: IC50 MCF-7
Protocol: as §4, §5, §6

MIC (Salmonella typhimurium): 125 µg/mL (≈ 378 µM)
MIC (Escherichia coli): > 250 µg/mL
MIC (Candida albicans): 250 µg/mL (≈ 757 µM)
IC50 (MCF-7 cells [2]): 10.1 ± 1.15 µg/mL (≈ 30.6 µM)
SMILES: COc1cc(-c2oc3cc(O)cc(O)c3c(=O)c2OC)ccc1O [3,3′-di-O-Methylquercetin]
MIC (Bacillus cereus): 62.5 µg/mL (≈ 189 µM)
Cytomorphological alterations (scanning electron microscopy) (MCF-7 cells [1]): cell shrinkage, membrane blebbing, loss of contact with neighboring cells, and formation of apoptotic bodies
IC50 (Vero cells): > 150 µg/mL
